In PMC12396409, “Screening and hit evaluation of a microbial metabolite library against the pathogenic Plasmodium falciparum and Toxoplasma gondii parasites” (International Journal for Parasitology: Drugs and Drug …, 2025):
Read-outs that look alike come from different tables or passages of the source.

Experiments:
[1] = system: P. falciparum 3D7 parasites; test: P. falciparum growth inhibition assay, 1-cycle (72 h treatment), SYBR DNA staining (library screen at 2 μg/mL and dose-response); assay type: cell-based, Plasmodium falciparum; conditions: for activity at 2 µg/mL: Plasmodium falciparum
[2] = system: P. falciparum 3D7 parasites; test: P. falciparum growth inhibition assay, 2-cycle (120 h treatment), delayed-death screen and dose-response; assay type: cell-based, Plasmodium falciparum; conditions: for activity at 2 µg/mL: Plasmodium falciparum
[3] = system: T. gondii RH strain (RH-Tub-eYFP) tachyzoites; test: microbe, parasite or virus in culture; assay type: cell-based, Toxoplasma gondii; conditions: 72 h, 72 h; for percent parasite growth at 2 µg/mL: Toxoplasma gondii
[4] = library screen at 2 μg/mL, 72 h, % growth, replicate 1
[5] = library screen at 2 μg/mL, 72 h, % growth, replicate 2
[6] = library screen at 2 μg/mL, 120 h, % growth, replicate 1
[7] = library screen at 2 μg/mL, 120 h, % growth, replicate 2
[8] = library screen at 2 μg/mL, % growth, replicate 1
[9] = library screen at 2 μg/mL, % growth, replicate 2
[10] = P. falciparum, 72 h, screen at 2 μg/mL, replicate 1
[11] = P. falciparum, 72 h, screen at 2 μg/mL, replicate 2
[12] = P. falciparum, 120 h, screen at 2 μg/mL, replicate 1
[13] = P. falciparum, 120 h, screen at 2 μg/mL, replicate 2
[14] = T. gondii, screen at 2 μg/mL, replicate 1
[15] = T. gondii, screen at 2 μg/mL, replicate 2

Compound `O=C(O)[C@H]1/C(=C/CO)O[C@@H]2CC(=O)N21` [Clavulanate potassium] has an activity at 2 µg/mL ([1]; 3D7, P. falciparum, 72 h, screen at 2 μg/mL, replicate 1, read-out: Pf_72h_%Growth_Rep1) of 85.1%, an activity at 2 µg/mL ([1]; 3D7, P. falciparum, 72 h, screen at 2 μg/mL, replicate 2, read-out: Pf_72h_%Growth_Rep2) of 88.1% and an activity at 2 µg/mL ([2]; 3D7, P. falciparum, 120 h, screen at 2 μg/mL, replicate 1, read-out: Pf_120h_%Growth_Rep1) of 88.4%. It also gave an activity at 2 µg/mL ([2]; 3D7, P. falciparum, 120 h, screen at 2 μg/mL, replicate 2, read-out: Pf_120h_%Growth_Rep2) of 86.6%, a percent parasite growth at 2 µg/mL ([3]; T. gondii, screen at 2 μg/mL, replicate 1, read-out: Tg_72h_%Growth_Rep1) of 102% and a percent parasite growth at 2 µg/mL ([3]; T. gondii, screen at 2 μg/mL, replicate 2, read-out: Tg_72h_%Growth_Rep2) of 102%.

With `Cc1c2c(c(O)c3c(O)ccc(Cl)c13)C(=O)C1(O)C(O)=C(C(N)=O)C(=O)C(N(C)C)C1C2.Cl` (stereo not drawn) the Pf_72h_%Growth_Rep1 [1, 4] was 85.99%, the Pf_72h_%Growth_Rep2 [1, 5] was 99.34% and the Pf_120h_%Growth_Rep1 [2, 6] was 95.25%. It also gave a Pf_120h_%Growth_Rep2 [2, 7] of 115.61%, a Tg_72h_%Growth_Rep1 [3, 8] of 119.39% and a Tg_72h_%Growth_Rep2 [3, 9] of 96.29%.

In the case of `CC1=CC2C(O)CCCC2C(C)(C(O)=C2C(=O)CNC2=O)C1CCC(C)C(O)/C(C)=C/CC(O)/C=C/C(C)C(O)/C=C/CC(O)/C=C/CC(O)CC1CCCN1C(=N)N` (stereo not drawn) [TPU-0037C], the Pf_72h_%Growth_Rep1 [1, 10] is reported as 76.69%, the Pf_72h_%Growth_Rep2 [1, 11] is reported as 109.21% and the Pf_120h_%Growth_Rep1 [2, 12] is reported as 83.44%. The Pf_120h_%Growth_Rep2 [2, 13] was 78.76%, the Tg_72h_%Growth_Rep1 [3, 14] was 129.91% and the Tg_72h_%Growth_Rep2 [3, 15] was 76.44%.

Compound `COc1cc(/C=N/O)nc(-c2ccccn2)c1` [Caerulomycin] has a Pf_72h_%Growth_Rep1 [1, 10] of 5.29%, a Pf_72h_%Growth_Rep2 [1, 11] of 5.34% and a Pf_120h_%Growth_Rep1 [2, 12] of 2.50%. For the same compound, the Pf_120h_%Growth_Rep2 [2, 13] was -6.36%, the Tg_72h_%Growth_Rep1 [3, 14] was 2.08% and the Tg_72h_%Growth_Rep2 [3, 15] was 0.20%.

`CC[C@H](C)[C@H]1O[C@]2(C=C[C@@H]1C)C[C@@H]1C[C@@H](C/C=C(\C)[C@@H](O[C@H]3C[C@H](OC)[C@@H](O[C@H]4C[C@H](OC)[C@@H](O)[C@H](C)O4)[C@H](C)O3)[C@@H](C)/C=C/C=C3\CO[C@@H]4[C@H](O)C(C)=C[C@H](C(=O)O1)[C@]34O)O2` [Avermectin B1a, epi-] showed a Pf_72h_%Growth_Rep1 [1, 4] of 8.49%, a Pf_72h_%Growth_Rep2 [1, 5] of 20.73% and a Pf_120h_%Growth_Rep1 [2, 6] of 5.66%. The Pf_120h_%Growth_Rep2 [2, 7] was -2.43%, the Tg_72h_%Growth_Rep1 [3, 8] was 34.09% and the Tg_72h_%Growth_Rep2 [3, 9] was 40.50%.

Work on `CC[C@@H]1CCN[C@H](C(=O)N[C@@H]([C@H]2O[C@H](SC)[C@H](O)[C@@H](O)[C@H]2O)[C@H](C)Cl)C1` [BIA-P1459] yielded a Pf_72h_%Growth_Rep1 ([1]; P. falciparum 3D7, 72 h, parasite screen at 2 μg/mL, % growth, replicate 1) of 26.60%, a Pf_72h_%Growth_Rep2 ([1]; P. falciparum 3D7, 72 h, parasite screen at 2 μg/mL, % growth, replicate 2) of 41.09% and a Pf_120h_%Growth_Rep1 ([2]; P. falciparum 3D7, 120 h, parasite screen at 2 μg/mL, % growth, replicate 1) of 9.76%. The Pf_120h_%Growth_Rep2 ([2]; P. falciparum 3D7, 120 h, parasite screen at 2 μg/mL, % growth, replicate 2) was 125.61%, the Tg_72h_%Growth_Rep1 ([3]; T. gondii, parasite screen at 2 μg/mL, % growth, replicate 1) was 8.37% and the Tg_72h_%Growth_Rep2 ([3]; T. gondii, parasite screen at 2 μg/mL, % growth, replicate 2) was 23.25%.

`C[C@@]12CCC[C@@]34CCC[C@@H](C=C[C@H]1CC3)N42` [Porantherine] showed a Pf_72h_%Growth_Rep1 ([1]; P. falciparum, 72 h, parasite screen 2 μg/mL, % growth, replicate 1) of 85.43%, a Pf_72h_%Growth_Rep2 ([1]; P. falciparum, 72 h, parasite screen 2 μg/mL, % growth, replicate 2) of 115.67% and a Pf_120h_%Growth_Rep1 ([2]; P. falciparum, 120 h, parasite screen 2 μg/mL, % growth, replicate 1) of 101.33%. For the same compound, the Pf_120h_%Growth_Rep2 ([2]; P. falciparum, 120 h, parasite screen 2 μg/mL, % growth, replicate 2) was 98.35%, the Tg_72h_%Growth_Rep1 ([3]; T. gondii, parasite screen 2 μg/mL, % growth, replicate 1) was 90.85% and the Tg_72h_%Growth_Rep2 ([3]; T. gondii, parasite screen 2 μg/mL, % growth, replicate 2) was 74.43%.

`CC[C@@H]1C[C@H]2CC[C@H](O2)[C@H](C)C(=O)O[C@@H](C)C[C@@H]2CC[C@@H](O2)[C@@H](C)C(=O)O[C@H](CC)C[C@H]2CC[C@H](O2)[C@H](C)C(=O)O[C@@H](C)C[C@@H]2CC[C@@H](O2)[C@@H](C)C(=O)O1` [Dinactin] was tested, and the activity at 2 µg/mL ([1]; 3D7, 72 h, library screen at 2 μg/mL, 72 h, % growth, replicate 1, read-out: Pf_72h_%Growth_Rep1) was 3.66%, the activity at 2 µg/mL ([1]; 3D7, 72 h, library screen at 2 μg/mL, 72 h, % growth, replicate 2, read-out: Pf_72h_%Growth_Rep2) was -1.84% and the activity at 2 µg/mL ([2]; 3D7, 120 h, library screen at 2 μg/mL, 120 h, % growth, replicate 1, read-out: Pf_120h_%Growth_Rep1) was 15.7%. For the same compound, the activity at 2 µg/mL ([2]; 3D7, 120 h, library screen at 2 μg/mL, 120 h, % growth, replicate 2, read-out: Pf_120h_%Growth_Rep2) was 11%, the percent parasite growth at 2 µg/mL ([3]; library screen at 2 μg/mL, % growth, replicate 1, read-out: Tg_72h_%Growth_Rep1) was 5.15% and the percent parasite growth at 2 µg/mL ([3]; library screen at 2 μg/mL, % growth, replicate 2, read-out: Tg_72h_%Growth_Rep2) was 2.32%.

For `C[C@H]1OC(=O)C=C[C@@H](O)[C@@H](O)CCCCCCCC[C@@H]1O` [Berkeleylactone F], the Pf_72h_%Growth_Rep1 [1, 4] was 78.45%, the Pf_72h_%Growth_Rep2 [1, 5] was 83.14% and the Pf_120h_%Growth_Rep1 [2, 6] was 146.18%. The Pf_120h_%Growth_Rep2 [2, 7] was 96.20%, the Tg_72h_%Growth_Rep1 [3, 8] was 83.11% and the Tg_72h_%Growth_Rep2 [3, 9] was 88.17%.
